The subject of one experiment is HUVEC. Briefly: Vesicle absorption and release of 3H-ATP into HUVEC. Type of experiment: cell-based, human. As to the method: To determine if ATP is also introduced into cells like carboxyfluorescein, vesicle absorption and release of ATP into HUVEC was followed using the ^3H-ATP-containing vesicles of Example 2. The vesicles were incubated with HUVEC for 5, 10, 15, 30, 45, 60, 90, 120, or 240 minutes. The result shown in FIG. 1 is the partition coefficient of ATP inside the cells after 1 hour. […] When the cells were washed repeatedly there was a significant change in the radioactivity of the cells.

A further experiment relates to amputated hind legs. In words: Limb replantation after perfusion of amputated hind legs. The class given is in vivo, rats. The settings on record: rat.

Description for amputated hind legs: Hind legs were amputated from rats, and the major feed arteries for the severed limbs were cannulated for infusion of ATP-SUV, (1 mM ATP) solution. The limbs were perfused with ATP-SUV or control solutions (see Table 1) every 3 hours, or as deemed necessary by the change in tissue ATP levels. The arterial pressure of the limbs was monitored during infusion to decrease the chance of flow-induced injury, and to monitor the overall preservation of the severed limbs (higher perfusion pressures may indicate limb morbidity). Following the preservation period, the limbs were flushed with Ringers to remove traces of ATP-SUV. The limbs were then surgically reattached, and external indices of limb function after anastomoses were evaluated (limb color, evidence of microthrombi, coagulation, limb temperature). The animals prior to and following replantation received heparin to prevent hemostasis. In addition, animals were placed on antibiotic therapy to reduce infection. Control limbs were perfused with vehicle only, vehicle and ATP only, or vehicle and SUVs only.

`Nc1ncnc2c1ncn2[C@@H]1O[C@H](COP(=O)(O)OP(=O)(O)OP(=O)(O)O)[C@@H](O)[C@H]1O` [^3H-ATP only, adenosine-5′-triphosphate (ATP)]: the “change in radioactivity of the cells after repeated washes” value in the experiment with HUVEC (3H-ATP) is “complete loss of radioactivity”. Moreover, the “partition coefficient of ATP inside the cells (percent incorporation, rank order)” value in the experiment with HUVEC (after 1 hour, FIG. 1) was “then ^3H-ATP only, without vesicles”. The “mode of cell entry concluded” value in the experiment with HUVEC (from wash and fusion data) is “does not enter cells”. The Limb outcome in the experiment on amputated hind legs is reported as “necrosis”.
